Columns and labels:
2′-deoxyguanosine (dG) [1] = assay: 8OHdG produced from added dG, standing at room temperature or UV irradiation (Examples 1-7); details: for 8OHdG concentration, 90 Minutes' UV irradiation / 8OHdG concentration, 90 Minutes' standing: Table 1; for 8OHdG concentration, 90 Minutes' UV irradiation: ultrapure water 0.529; for 8OHdG concentration, 90 Minutes' standing: ultrapure water 0.267;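 as to all read-outs here: Cell-free test: dG in test solution, held at room temperature or exposed to 254 nm UV, then 8OHdG quantified by HPLC with electrochemical detection, compared against dG in ultrapure water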
Procedure: Separately, the amount of 8OHdG after an ultrapure water solution of dG is left to stand under the same conditions as above for a predetermined time is measured (this value is defined as B). If A is greater than B, the test substance is evaluated to have oxidation induction ability and conversely if A is smaller than B, the test substance is evaluated to have antioxidant ability. In either case, it is judged that the greater the difference is, the greater degree of oxidation induction ability or antioxidant capability the test substance has.
Then, 20 μl of 200 μg/ml dG (dissolved in ultrapure water) was added to each well and one of the plates was left to stand as it was at room temperature for 90 minutes and the other plate was irradiated with UV light (254 nm, 860 μW/cm^2) for 90 minutes in a UV light irradiation box. […] Subsequently, nucleosides in the both were quantified by use of the UV light absorption analyzer connected to the HPLC and the electrochemical detector.
Solutions of predetermined concentrations of vitamin C (VC), vitamin E (VE), catechin (Cate) and tannic acid (Tan) were prepared and 180 μl portions were injected into each well of two 99-well plastic plates. Then, 20 μl of 200 μg/ml dG (dissolved in ultrapure water) was added to each well and one of the plates was left to stand as it was at room temperature for 90 minutes and the other plate was irradiated with UV light (254 nm, 860 μW/cm^2) for 90 minutes in a UV light irradiation box.
Then, 20 μl of 200 μg/ml dG (dissolved in ultrapure water) was added to each well and one of the plates was left to stand as it was at room temperature for 90 minutes and another plate was left to stand similarly at room temperature for 24 hours. The remaining three plates were irradiated with UV light (254 nm, 860 μW/cm^2) for 60 minutes, 90 minutes and 120 minutes, respectively, in a UV light irradiation box.
Solutions of predetermined concentrations of glucose (Glu), raffinose (Raffi) and sucrose (Suc) were prepared and 180 μl portions thereof were injected into each well of four 99-well plastic plates. Then, 20 μl of 200 μg/ml dG (dissolved in ultrapure water) was added to each well and one of the plates was left to stand as it was at room temperature for 90 minutes. The remaining three plates were irradiated with UV light (254 nm, 860 μW/cm^2) for 60 minutes, 90 minutes and 120 minutes, respectively, in a UV light irradiation box.
Then, 20 μl of 200 μg/ml dG (dissolved in ultrapure water) was added to each well and one of the plates was left to stand as it was at room temperature for 90 minutes and the other plate was irradiated with UV light (254 nm, 860 μW/cm^2) for 90 minutes in a UV light irradiation box.
Solutions of various concentrations of uric acid (dissolving fluid: distilled water+0.025% FBS) were prepared and 180 μl portions thereof were injected into each well of two 99-well plastic plates. Then, 20 μl of 200 μg/ml dG (dissolved in ultrapure water) was added to each well and one of the plates was left to stand as it was at room temperature for 90 minutes and the other plate was irradiated with UV light (254 nm, 860 μW/cm^2) for 90 minutes in a UV light irradiation box.

2′-deoxyguanosine (dG) [2] = assay: 8OHdG produced from dG with test substance and coexisting bisphenol A, standing or UV (Example 9); format: biochemical; details: for 8OHdG concentration, 90 Minutes' standing: ultrapure water 0.21; for 8OHdG concentration, 90 Minutes' UV irradiation: ultrapure water 0.64
Procedure: 170 μl portions of ultrapure water and predetermined concentrations of vitamin C (VC), vitamin E (VE), and glucose (Glu) as test substance were added to each well of two […] plastic plates and, as additional solution, 20 μl of ultrapure water or predetermined concentration of bisphenol A (BPA) were injected into each well.

[3] = common in every country; cited from earlier work
[4] = BPA 0.5 ppm added to ultrapure water
[5] = BPA 5 ppm added to ultrapure water
[6] = BPA 50 ppm added to ultrapure water

With `CC(C)(c1ccc(O)cc1)c1ccc(O)cc1` [BPA, bisphenol A] the “8OHdG concentration, 90 Minutes' UV irradiation” value (2′-deoxyguanosine (dG) [1]; 0.0005 ppm) was 0.689 ng/mL, the “8OHdG concentration, 90 Minutes' standing” value (2′-deoxyguanosine (dG) [1]; 0.005 ppm) was 0.315 ng/mL and the “8OHdG concentration, 90 Minutes' UV irradiation” value (2′-deoxyguanosine (dG) [1]; 0.005 ppm) was 0.794 ng/mL. The “8OHdG concentration, 90 Minutes' UV irradiation” value (2′-deoxyguanosine (dG) [1]; 0.05 ppm) was 0.614 ng/mL, the “8OHdG concentration, 90 Minutes' standing” value (2′-deoxyguanosine (dG) [1]; 0.5 ppm) was 0.231 ng/mL and the “8OHdG concentration, 90 Minutes' UV irradiation” value (2′-deoxyguanosine (dG) [1]; 0.5 ppm) was 1.736 ng/mL. For the same compound, the “8OHdG concentration, 90 Minutes' standing” value (2′-deoxyguanosine (dG) [1]; 5 ppm) was 0.192 ng/mL, the “8OHdG concentration, 90 Minutes' UV irradiation” value (2′-deoxyguanosine (dG) [1]; 5 ppm) was 7.142 ng/mL and the “concentration at which oxidation injury activity due to UV light is elevated (harmfulness increased)” value (2′-deoxyguanosine (dG) [1]; Example 1, 90 minutes UV) was at least 0.5 ppm. For the same compound, the “8OHdG concentration, 90 Minutes' standing” value (2′-deoxyguanosine (dG) [2]; [4]) was 0.19 ng/mL, the “8OHdG concentration, 90 Minutes' UV irradiation” value (2′-deoxyguanosine (dG) [2]; [4]) was 2.09 ng/mL and the “8OHdG concentration, 90 Minutes' standing” value (2′-deoxyguanosine (dG) [2]; [5]) was 0.31 ng/mL. The “8OHdG concentration, 90 Minutes' UV irradiation” value (2′-deoxyguanosine (dG) [2]; [5]) was 6.19 ng/mL, the “8OHdG concentration, 90 Minutes' standing” value (2′-deoxyguanosine (dG) [2]; [6]) was 0.22 ng/mL and the “8OHdG concentration, 90 Minutes' UV irradiation” value (2′-deoxyguanosine (dG) [2]; [6]) was 11.58 ng/mL. The “effect on 8OHdG with BPA and UV light irradiation” value (2′-deoxyguanosine (dG) [2]; Example 9) was “increases depending on concentration” and the Acceptable uptake amount [3] was 0.05 mg/kg/day.
